# Patent US20130039956A1, “USE OF NITROCARBOXYLIC ACIDS FOR THE TREATMENT, DIAGNOSIS AND PROPHYLAXIS OF AGGRESSIVE HEALING PATTERNS” (priority 2010, published 2013)
# Legend:
# [1] = system: female Sprague-Dawley rats; assay: Fibrogenesis in an in-vivo model of soft implant implantation; design: species or system rat; settings: subcutaneous implants, 120 days, compared with native FA
# Experimental: Silicone bag-gel miniprostheses (POLYTECH Health & Aesthetics GmbH, Dieburg, Germany) having a diameter of 2 cm and a volume of approximately 2 ml were used. […] The experimentally used implant models had two small tags which allowed the implants to be suspended during the coating procedures.
# Each implant was treated in the following manner: cleaning by sonication for 2 min each in the following sequence of solvents: acetone, toluene, acetone, ethanol, and water. Implants were exposed to Piranha solution for 60 min and rinsed with deionized water. They were then immersed in a 20% aqueous solution of ammonium fluoride for 45 min to obtain a hydrogen-passivated Si surface. The ammonium fluoride solution was sparged with nitrogen for 15 min to remove dissolved oxygen. Prepared implants were transferred to a glass chamber filled with an inert atmosphere where they were suspended so that no part of their surface came in contact with the container. The container was filled with a 1-hexadecene solution and heated at 150° C. at a pressure of 2 Torr for 120 min. Prepared implants were cleaned in the following sequence of solvents: acetone, ethanol, and water. Formation of self assembled monolayer was controlled by measuring surface hydrophobicity; the contact angle was about 105°. Dry implants suspended in the container were then bathed in an ethanolic solution of oleic acid or nitro-oleic acid at a temperature of 40° C. for 120 min. Thereafter, the solution was allowed to run out slowly through an outlet at the bottom of the container. The emptying container was filled with inert gas in which the samples were maintained for 24 hours. Then samples were bathed three times in an ethanolic solution, followed by a final rinsing with sterile water. After drying, the container with the prepared implant was sterilized using ethylene oxide and stored at 20° C.
# For in vivo testing, 24 uncoated and 24 coated implants were investigated in 24 female Sprague-Dawley rats (190-230 g). In the anesthetized animals, bilateral dorsal pockets in the subcutaneum were created by blunt dissection through paired paravertebral incisions. Each animal received one coated implant and one control implant on opposite sides, alternating sides on successive animals. Animals were housed and fed according to institutional standards for 120 days. Animals were sacrificed with chloroform. The implants and the adhering tissue were extracted by en bloc resection. The implants were cannulated and the liquid silicone gel was replaced by paraffin. Thereafter, the complete tissue block was prepared by standard means of histology, and stained with H&E or Masson's trichrome.
# [2] = system: human umbellical endothelial cells (HUVEC); assay: Adhesion, propagation and growth of endothelial cells on coated polystyrene films; type: cell-based; settings: days 3, 7, 14, compared with native FA
# Experimental: Polystyrene scaffolds were prepared and pretreated in the same manner as performed in example 1 by using the same nitrocarboxylic acids as listed in table 1. The film samples were placed in a culture dish containing a gel matrix, in which human umbellical endothelial cells (HUVEC) had been allowed to grow to confluence. The culture medium consisted of 5% FCS, which was replaced every 5 days. Cultivation was performed according to standard conditions. Films were evaluated at days 3, 7, and 14 after careful extraction from the culture dishes, rinsing with saline solution, and staining with methylene blue. Using a reflected light microscope, the films were immediately examined to evaluate the following: Propagation of cells to the film center, cell confluidity, multilayer formation, and cell shape.
# fibroblasts = assay: Biofouling and cell adherence at prosthetic materials (dip-coated polymer films); type: cell-based; settings: compared with native FA (control)
# Experimental: Polymer scaffolds (polyurethane, polyvinylchloride, polylactate) which are used as implant materials were investigated. Solid and porous (pore sizes ranging from 50 to 150 micrometer) films of pure polymer scaffolds were cut into pieces (5×5 mm). After cleaning with NaOH and ethanol, they were dip-coated with native and nitrocarboxylic acids. Dip-coated pieces were suspended in a tube filled with argon and heated at 60° C. for 24 hours in the dark. Film pieces with and without coating were placed in a borosilicate glass tube that allowed fixation of two margins of the film pieces at the wall of the glass tube, thus, enabling a upright standing position in the center of the tube. Tubes were filled with various solutions for 12 hours. Solutions consisted of the following: 0.9% saline; 2% bovine albumin; 2% bovine albumin with addition of either fibronectin or laminin; and bovine serum. At the end of the exposure time, tubes were gently washed twice with 0.9% saline solution. One set of films was analyzed for protein absorption using a specific antibody staining method. An identically prepared set of films was further processed for cell cultures. A suspension containing preincubated fibroblasts in 1% FCS was added to the film-containing tubes. The tubes were tilted and adjusted in such a position so that the films were in a vertical orientation within the suspension. […] Tubes had two openings at the upper half (of the tilt tubes) that allowed free exchange of the atmosphere above the solution with the surrounding atmosphere. Sets were incubated at standard conditions for 24, 48, and 96 hours, respectively. Thereafter, films were carefully removed and rinsed with 0.9% saline solution. The cellularity and the shape of the cells on both sides of the films were evaluated after staining (Gimsa) using a reflected light microscope.
# human dermal fibroblasts = assay: Extra cellular matrix production (collagen-1) in response to TGF-β2 in dermal fibroblasts; type: cell-based; settings: 10 and 50 μmol, TGF-β2 25 ng/ml, 48 hours; compared with native FA
# Experimental: In order to determine whether PPRA gamma stimulation due to nitrated fatty acids plays a role in the inventive inhibition of an aggressive healing pattern to an irritating stimulus, human dermal fibroblasts were investigated. A dominant-negative PPAR gamma mutant (L466A) cell clone was generated by polymerase chain reaction-based site-directed mutagenesis. Presence of PPAR gamma or absence was investigated using a PPAR gamma antibody reaction which was determined using an enhanced chemiluminescence detection system. Furthermore, one cell series was incubated with a selective irreversible PPAR gamma ligand (GW9662, 1 μmol), which effectively blocks PPAR gamma receptors.
# Sequential cultivation of human dermal fibroblasts was performed in EMEM containing 5 mM glucose supplemented with 10% FCS under standard cultivation conditions. Cells were allowed to grow to confluence in a 96-well plate. Wild-type fibroblasts and PPAR gamma deficient fibroblasts were investigated by a set-up of 2×10 sample sets comprising: (1) blank control; (2) stimulation control; (3) preincubation with the PPAR gamma antagonist GW9662 (Cayman Chemical); (4) preincubation with the PPAR agonist troglitazone (25 μmol). In 2×4 sample sets, native fatty acids were added to the medium to achieve a final concentration of 10 and 50 μmol, respectively; in another 2×4 sets the nitrated fatty acids were added to the medium in the same concentration, while 2×2 sets served as controls. In 10 of the sets, TGF-β2 was added to the culture medium at a concentration of 25 ng/ml. Cultivation was continued for 48 hours and then processed in order to analyze collagen-1 as measured by enhanced chemiluminescence detection of immuncomplexes.
# Note: key: 0: not superior to native FA (control); +: Superior to native FA; ++: superior to both; +++: outstanding effect.
Molecule,Relative effect of surface coating on fibrogenesis around silicone implants [1],"Relative differences: effect on adhesion, propagation and growth of endothelial cells [2]",Relative differences: effect on biofouling and cell adherence (fibroblasts),Relative effect on collagen-1 production in response to TGF-β2 (human dermal fibroblasts)
"CCCCC=C(C=CC=CCCCCCCCC(=O)O)[N+](=O)[O-] [compound 11, 13-nitro-octadeca-9,11,13-trienoic acid]",+,+,+,+
"CC/C=C\C/C=C\C/C=C(/CCCCCCCC(=O)O)[N+](=O)[O-] [compound 6, 9-nitro-all-cis-9-12,15-octadecatrienoic acid]",++,++,++,++
"9,10-nitro-cis-oleic acid [compound 10]",++,++,+++,++
